Experimental data as given in PMC11096368, “Transcriptomic signature, bioactivity and safety of a non-hepatotoxic analgesic generating AM404 in the midbrain PAG region” (Scientific Reports, 2024).
Values joined by “and” are separate entries in the source; they are usually repeats but may differ in a detail not shown here. Equal values may be shown once. Read-outs that look alike come from different tables or passages of the source.

Test: Phase 1 single ascending dose (SAD) pharmacokinetics incl. food effect
Format: in vivo, human
Conditions: for Tmax (h) / Tmax: N 6; for AUC(0-t) / AUC(0-inf) / Cmax / half-life / Tmax: human, plasma; for AUC(0-t) / AUC(0-inf) / Cmax / half-life: oral; for Tmax: po
Procedure: A randomized, double-blind, placebo-controlled Phase 1 trial (ClinicalTrials.gov identifier: NCT05484414) (02/08/2022) was conducted to assess the safety, tolerability, food effect, pharmacokinetics (PK), and pharmacodynamics (PD) of single and multiple ascending doses of SRP-001 (Quotient Sciences, Miami FL USA; Fig. 3h - k and Methods). The trial was conducted in accordance with the International Council for Harmonisation of Technical Requirements for Pharmaceuticals for Human Use (ICH), Guideline for GCP: Consolidated Guidance (E6), attained Institutional Review Board approval, and all applicable regulatory requirements for Phase 1, First in Human clinical trials. Safety measurements and plasma samples to determine PK parameters were collected throughout the study for all subjects and reviewed by the Safety Review Committee. PK stopping criteria were established to assure that systemic exposure to SRP-001 was less than or equal to the systemic exposure achieved at the NOAEL doses in the 28-day repeat-dose toxicology studies in the rat and dog. The trial’s Safety Advisory Committee has approved the publication of the Phase 1 results.
SRP-001 was administered as an oral nanosuspension to 56 healthy volunteers across five Single Ascending Dose (SAD) and two Multiple Ascending Dose (MAD) cohorts, with 42 subjects receiving SRP-001 and 14 receiving a placebo.
A two-part randomized, double-blind, placebo-controlled Phase 1 trial was conducted to assess the safety, tolerability, PK and PD of SRP-001 ascending doses (Quotient Sciences, Miami, FL, USA). The study was conducted in accordance with the International Council for Harmonisation of Technical Requirements for Pharmaceuticals for Human Use (ICH), Guideline for GCP: Consolidated Guidance (E6), and applicable regulatory requirements(s) including clinical research guidelines established by the Basic Principles defined in the U.S. 21 CFR Parts 50, 56, and 312 and the principles enunciated in the Declaration of Helsinki (revised version Fortaleza 2013). The clinical protocol and informed consent form were reviewed and approved by an Institutional Review Board (IRB; Advarra IRB, 6100 Merriweather Drive, Suite 600, Columbia, MD 21,044; Quotient Protocol No. SRP-101 and Quotient Sciences Study No. QSC205130; Quotient Sciences Miami, 3898 NW 7th Street, Miami, FL 33,126.). The study comprises a SAD (Part 1) assessment that includes a food effect assessment that contributes data to inform a subsequent MAD (Part 2) dose-ranging study. Safety measurements were collected throughout the study for all subjects. Blood samples were collected to determine the PK parameters of SRP-001 (ClinicalTrials.gov identifier: NCT05484414) (02/08/2022).
NHVs were dosed in the fasted state. The calorie/fat content of meals was not required to be controlled. Subjects were provided with a standardized menu. Subjects were provided with a light snack and then fasted from all food and drink (except water) for a minimum of 10 h on the day prior to dosing until approximately 4 h post-dose, at which time lunch was provided. An evening meal was provided at approximately 10 h post-dose/post-morning dose and an evening snack at approximately 14 h post-morning dose. Food effect was studied in the cohort receiving 900 mg SRP-001 in the fed state. A standard high-fat breakfast was given 30 min before dosing. On Day -1, these NHVs were provided with a light snack and fasted from all food and drink (except water) until the following morning, when they were provided with a standard high-fat breakfast. The breakfast had to be consumed over a maximum period of 25 min, with dosing occurring 30 min after the start of breakfast. Subjects were encouraged to eat their meal evenly over the 25 min period. It was acknowledged that some subjects took less time to eat, but dosing still occurred 30 min after the start of breakfast. Subjects had to consume at least 90% to be eligible for dosing. […]

[1] = 300 mg, Cohort 1, Regimen A, Fasted, geometric mean (geometric CV%)
[2] = 600 mg, Cohort 2, Regimen B, Fasted, geometric mean (geometric CV%)
[3] = 900 mg, Cohort 3, Regimen C, Fasted, geometric mean (geometric CV%)
[4] = 900 mg, Cohort 3, Regimen D, Fed, geometric mean (geometric CV%)
[5] = 2000 mg, Cohort 4, Regimen E, Fasted, geometric mean (geometric CV%)
[6] = relative bioavailability, Cohort 4, Regimen E, text b207 under 900 mg fed state

CCN(CC)C(=O)c1ccccc1S(=O)(=O)NCC(=O)Nc1ccc(O)cc1 [SRP-001, N,N-diethyl-2-[[2-(4-hydroxyanilino)-2-oxo-ethyl]sulfamoyl]benzamide]
Geometric mean AUC(0–24) as share of the exposure limits defined in the protocol (2000 mg, fasted): 31%
Geometric mean Cmax as share of the exposure limits defined in the protocol (2000 mg, fasted): 34%
Dose proportionality of geometric mean Cmax and AUC(0-∞) (300 to 2000 mg): dose-proportional or super-proportional increase
T1/2 (h) (Cohort 1, Regimen A, 300 mg, Fasted, geometric mean (geometric CV%)): 2.38 (65.9) h
Tmax (h) (Cohort 2, Regimen B, 600 mg oral suspension, Fasted): 1 (1.00–2.00) h
T1/2 (h) (Cohort 2, Regimen B, 600 mg, Fasted, geometric mean (geometric CV%)): 5.04 (107.8) h
Tmax (h) (Cohort 3, Period 2: Regimen D, 900 mg oral suspension, Fed): 1 (1.00–8.00) h
T1/2 (h) (Cohort 3, Regimen C, 900 mg, Fasted, geometric mean (geometric CV%)): 3.26 (62.1) h
T1/2 (h) (Cohort 3, Regimen D, 900 mg, Fed, geometric mean (geometric CV%)): 3.79 (74.5) h
Tmax (h) (Cohort 4, Regimen E, 2000 mg oral suspension, Fasted): 1 (1.00–2.00) h
T1/2 (h) (Cohort 4, Regimen E, 2000 mg, Fasted, geometric mean (geometric CV%)): 5.96 (65.9) h
Increase of geometric mean AUC(0–24) (dose from 300 to 600 mg): 3.5 fold
Increase of geometric mean Cmax (dose from 300 to 600 mg): 2.6 fold
Increase of geometric mean AUC(0–24) (dose from 600 to 900 mg): 1.2 fold
Increase of geometric mean Cmax (dose from 600 to 900 mg): 1.6 fold
Increase of geometric mean Cmax (dose from 900 to 2000 mg (2.2-fold increase in dose)): 1.7 fold
AUC(0-t) (300 mg, Cohort 1, Regimen A, 300 mg, Fasted, geometric mean (geometric CV%), read-out: AUC0-24): 1620 ng·h/mL
AUC(0-t) (300 mg, Cohort 1, Regimen A, 300 mg, Fasted, geometric mean (geometric CV%), read-out: AUC0-last): 1320 ng·h/mL
AUC(0-inf) [1]: 1630 ng·h/mL
Cmax [1]: 665 ng/mL
half-life [1]: 144 min
AUC(0-t) (300 mg, fasted, geometric mean, read-out: AUC(0–48)): 1630 ng·h/mL
AUC(0-t) (600 mg, Cohort 2, Regimen B, 600 mg, Fasted, geometric mean (geometric CV%), read-out: AUC0-24): 5660 ng·h/mL
AUC(0-t) (600 mg, Cohort 2, Regimen B, 600 mg, Fasted, geometric mean (geometric CV%), read-out: AUC0-last): 4940 ng·h/mL
AUC(0-inf) [2]: 5840 ng·h/mL
Cmax [2]: 1740 ng/mL
half-life [2]: 300 min
AUC(0-t) (900 mg, Cohort 3, Regimen C, 900 mg, Fasted, geometric mean (geometric CV%), read-out: AUC0-24): 6870 ng·h/mL
AUC(0-t) (900 mg, Cohort 3, Regimen C, 900 mg, Fasted, geometric mean (geometric CV%), read-out: AUC0-last): 6810 ng·h/mL
AUC(0-inf) [3]: 6970 ng·h/mL
Cmax [3]: 2700 ng/mL
half-life [3]: 198 min
AUC(0-t) (900 mg, Cohort 3, Regimen D, 900 mg, Fed, geometric mean (geometric CV%), read-out: AUC0-24): 6250 ng·h/mL
AUC(0-t) (900 mg, Cohort 3, Regimen D, 900 mg, Fed, geometric mean (geometric CV%), read-out: AUC0-last): 6130 ng·h/mL
AUC(0-inf) [4]: 5910 ng·h/mL
Cmax [4]: 1200 ng/mL
half-life [4]: 228 min
AUC(0-t) (2000 mg, Cohort 4, Regimen E, 2000 mg, Fasted, geometric mean (geometric CV%), read-out: AUC0-24): 18900 ng·h/mL
AUC(0-t) (2000 mg, Cohort 4, Regimen E, 2000 mg, Fasted, geometric mean (geometric CV%), read-out: AUC0-last): 19100 ng·h/mL
AUC(0-inf) [5]: 19600 ng·h/mL
Cmax [5]: 4590 ng/mL
half-life [5]: 360 min
Tmax (300 mg, Cohort 1, Regimen A, 300 mg oral suspension, Fasted): 1 h
Tmax (600 mg, Cohort 2, Regimen B, 600 mg oral suspension, Fasted): 1 to 2 h
Tmax (900 mg, Cohort 3, Period 1: Regimen C, 900 mg oral suspension, Fasted): 1 h
Tmax (900 mg, Cohort 3, Period 2: Regimen D, 900 mg oral suspension, Fed): 1 to 8 h
Tmax (2000 mg, Cohort 4, Regimen E, 2000 mg oral suspension, Fasted): 1 to 2 h
Frel AUC(0- last) (%) [6]: 98.4% and 98.4a (16.3) %
Frel AUC(0-inf) (%) [6]: 101% and 101a (20.3) %
Frel AUC(0–24) (%) [6]: 99.2% and 99.2a (19.0) %
Frel Cmax (%) [6]: 48.4% and 48.4a (21.9) %
